{
  "source": "patent US20060141029A1",
  "about": "“Methods and compositions for delivery of catecholic butanes for treatment of diseases” (priority 2003, published 2006)",
  "key": {"[1]": {"test_system": "refractory head and neck carcinomas", "method": "All patients were diagnosed with refractory head and neck carcinomas.\nNine (9) subjects were dosed with an intratumoral dose of M4N given weekly for three weeks, at doses of 5 mg/cm^3 tumor volume (2 subjects), 10 mg/cm^3 (2 subjects) 15 mg/cm^3 (3 subjects) and 20 mg/cm^3 (2 subjects). Doses up to 495 mg weekly for three weeks were administered."}, "[2]": {"assay": "Toxicokinetic (TK) analysis of M4N serum concentration in dogs", "type": "in vivo, Beagle Dogs", "conditions": "DMSO vehicle, doses up to 100 mg/kg", "protocol": "Blood samples from the DMSO group animals were collected via the cephalic vein on SD 1, SD 3, SD 6, and SD 8 at the following timepoints: predose, 0.25, 0.5, 1, 2, 4, 8, and 16 hours following the final injection dose of M4N-DMSO. Blood samples collected from the animals were processed for plasma and serum for TK analysis.\nThe plasma and serum samples were sent to MedTox Laboratories, the Sponsor's designated laboratory for TK analysis. TK analysis of M4N plasma and serum concentration-time data was performed using a validated method (M200406) by MedTox Laboratories and analyzed by noncompartmental methods to obtain estimates of toxicokinetic parameters (where data allow), but not necessarily limited to, Cmax, Tmax and AUC."}, "head and neck cancer": {"test_system": "head and neck cancer", "assay": "ex-US clinical study, daily M4N with or without G4N followed by surgical resection", "type": "in vivo, humans"}, "[3]": {"conditions": "dog, in vivo, iv", "method": "In this example the Maximal Tolerable Dose (MTD) of Dimethyl Sulfoxide (DMSO)] to male and female Beagle Dogs was determined.\nThus the M4N-DMSO group animals were administered with M4N-DMSO with eight intravenous injections via the non-VAP jugular vein every 30 minutes over a 4-hour period. This frequency of delivery mimicked the delivery of the test article using the infusion pump.\nThe dogs in the DMSO group were observed throughout the jugular vein injection period and for at least one hour following the last (eighth) injection."}, "[4]": {"test_system": "HPV-16 transformed immortal mouse epithelial cells (C3)", "conditions": "cited from earlier work; for tumor growth: intratumor injection, separately or together, C3 tumors in mice"}, "[5]": {"conditions": "DMSO; cited from earlier work"}, "[6]": {"conditions": "rodents; cited from earlier work"}, "[7]": {"conditions": "in vivo; cited from earlier work"}, "β-amyloid fibrils": {"test_system": "β-amyloid fibrils", "conditions": "in vitro; cited from earlier work"}, "[8]": {"test_system": "mammary carcinoma MX-1 xenograft", "conditions": "intratumoral single dose or topical application, athymic mice; cited from earlier work"}, "fAβ(1-42)": {"target": "T1, fAβ(1-42) (Homo sapiens, UniProt P05067)", "T1 construct": "fAβ(1-42) within a few hours at pH 7.5", "T1 sequence (P05067 672-713 limits assumed)": "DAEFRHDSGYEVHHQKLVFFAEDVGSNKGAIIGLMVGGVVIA", "conditions": "within a few hours at pH 7.5 at 37° C.; cited from earlier work"}, "fAβ(1-40)": {"target": "T2, fAβ(1-40) (Homo sapiens, UniProt P05067)", "T2 construct": "broke down fAβ(1-40)", "T2 sequence (P05067 672-711 limits assumed)": "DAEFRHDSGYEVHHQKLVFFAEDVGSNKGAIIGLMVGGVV", "conditions": "within a few hours at pH 7.5 at 37° C.; cited from earlier work"}, "Solubility": {"assay": "Solubility", "type": "physicochemical"}},
  "data": [
    {"compound": "COc1ccc(C[C@@H](C)[C@@H](C)Cc2ccc(OC)c(OC)c2)cc1OC", "note": "[M4N, meso-1,4-bis(3,4-dimethoxyphenyl)-2,3-dimethylbutane]", "values": [
      {"measurement": "damage to healthy tissue surrounding the tumor", "setting": "[1]; in vivo", "result": "No damage"},
      {"measurement": "dose delivered without drug-related toxicity", "setting": "[1]; in vivo", "result": "up to 495 mg"},
      {"measurement": "dosing related adverse events", "setting": "[1]; in vivo", "result": "mild or moderate pain on injection"},
      {"measurement": "hematology parameters", "setting": "[1]; in vivo", "result": "No changes attributable to drug"},
      {"measurement": "liver function tests (LFTs)", "setting": "[1]; in vivo", "result": "Sporadic, and non-reproducible mild elevations"},
      {"measurement": "number of Serious Adverse Events (SAE)", "setting": "[1]; in vivo", "result": 6},
      {"measurement": "relation of SAEs to study medication", "setting": "[1]; in vivo", "result": "unlikely or not related to study medication"},
      {"measurement": "tolerability of dosing", "setting": "[1]; in vivo", "result": "generally well tolerated"},
      {"measurement": "patients with radiologically confirmed tumor volume reduction", "setting": "[1]; patients completing three doses", "result": "three of the six"},
      {"measurement": "efficacy in terms of induction of necrosis", "setting": "[1]; patients that completed the treatment, weekly escalating doses", "result": "over 80%"},
      {"measurement": "subjects with drug related tumor necrosis after injection", "setting": "[1]; subjects receiving three doses", "result": "5 of 6"},
      {"measurement": "blood levels of M4N achieved", "setting": "[2]", "result": "up to 14,000 ng/ml"},
      {"measurement": "dosage delivered without drug-related toxicity", "setting": "head and neck cancer; for up to five days, with or without G4N 20 mg per day", "result": 20, "unit": "mg per day"},
      {"measurement": "patients remaining disease free", "setting": "head and neck cancer; long-term follow ups of the ex-US study", "result": 64, "unit": "%"},
      {"measurement": "efficacy in terms of induction of necrosis", "setting": "head and neck cancer; patients that completed the treatment, daily dosing then resection", "result": "over 80%"},
      {"measurement": "dose safely administered", "setting": "[3]", "result": "up to 100 mg/kg"},
      {"measurement": "penetration of tumor tissues", "setting": "[4]; composition of M4N in DMSO injected into the tumor", "result": "penetrate most but not all of the tumor tissues"},
      {"measurement": "tumor growth", "setting": "[4]", "result": "some evidence of suppression of tumor growth"},
      {"measurement": "solubility in dimethyl sulfoxide", "setting": "[5]", "result": "soluble"}
    ]},
    {"compound": "CC(Cc1ccc(O)c(O)c1)C(C)Cc1ccc(O)c(O)c1", "note": "(centres unmarked) [NDGA, nordihydroguaiaretic acid]", "values": [
      {"measurement": "serum glucose", "setting": "[6]", "result": "reducing"},
      {"measurement": "serum non-esterified fatty acids", "setting": "[6]", "result": "reducing"},
      {"measurement": "serum triglyceride", "setting": "[6]", "result": "reducing"},
      {"measurement": "hypertension", "setting": "[7]", "result": "reducing hypertension"},
      {"measurement": "β-amyloid fibrils (fAβ) formation", "setting": "β-amyloid fibrils", "result": "inhibited"},
      {"measurement": "tumor growth", "setting": "[8]", "result": "Some evidence of inhibition of tumor growth"},
      {"measurement": "breakdown of fAβ(1-42)", "setting": "fAβ(1-42)", "result": "dose-dependently broke down"},
      {"measurement": "breakdown of fAβ(1-40)", "setting": "fAβ(1-40)", "result": "dose-dependently broke down"}
    ]},
    {"compound": "C[C@H](Cc1ccc(OC(=O)CN(C)C)c(OC(=O)CN(C)C)c1)[C@@H](C)Cc1ccc(OC(=O)CN(C)C)c(OC(=O)CN(C)C)c1", "note": "[G4N, meso-1,4-bis[3,4-(dimethylaminoacetoxy)phenyl]-(2R,3S)-dimethylbutane]", "values": [
      {"measurement": "tumor growth", "setting": "[4]", "result": "some evidence of suppression of tumor growth"},
      {"measurement": "water solubility", "setting": "Solubility", "result": "water-soluble"}
    ]}
  ]
}
